Experimental findings from patent US20250108068A1, “COMPOSITIONS AND METHODS FOR ALLEVIATING PULMONARY AILMENTS” (Color Ventures LLC, priority 2023, published 2025) are described below.

The subject of one assay is sheep. The experiment in a line: Tracheal mucus velocity (TMV) in sheep after CFTR inhibition. The note with it: nebulization, over a period of 2-3 hours. Format: in vivo. The procedure: Modeling mucociliary clearance. To model mucociliary clearance, sheep 40-50 kg were intubated and the velocity of mucociliary clearance in the trachea was measured by insufflation of radio-opaque Teflon discs were placed into the sheep trachea so that they become embedded in the mucus in the trachea. The movement of multiple discs over several minutes was determined using fluoroscopy and the tracheal mucus velocity (TMV) is calculated as the average that the discs travel per minute. After establishing a baseline TMV, a potent long-lasting inhibitor of CFTR (INH-172) was delivered by nebulization with TMV measurements performed every hour, and over a period of 2-3 hours the TMV declines by approximately 50% in a manner like CF where the inability to secrete Cl^− and NaHCO3 results in dehydration of the airways and slowing of mucociliary clearance.
Once the stable inhibition of TMV has been established, typically at hour 4, the test compound was delivered by nebulization and TMV measured for an additional 8 hours. Inhibitors of ENaC like amiloride (as described in Scott, David W., et al., American Journal of Respiratory and Critical Care Medicine 196.6 (2017): 734-744, incorporated herein in its entirety) and P1037/VX371 show rescue of TMV that is of limited duration with an effect that only lasts for 2-3 hours, due to systemic clearance.

For assay [1], the system named is test epithelia (MucilAir™). The experiment in a line: Cilia beating frequency (CBF) and % active area. Format: cell-based, human. The settings on record: positive control, 100 μM in basolateral compartment for 2 hours. The procedure:
In the studies described herein, test epithelia (MucilAir™, Epithelix) are reconstituted from cells isolated from a healthy bronchial donor. The formulation is exposed apically to mimic deposition on the nasal mucosa via inhalation. In the studies described herein, positive controls depend on experiment. For example: Isoproterenol 100 μM in culture medium; CBF activator applied in basolateral compartment ([…]) for 2 hours (CBF positive control); Isoproterenol 100 μM in culture medium (MCC positive control); […] Timeline of Epithelia Experiments. At time point 0, epithelia are treated with the test formulation or control using an apical mode of administration. Test formulations or control were exposed at a quantity of 10 μL, at the concentrations in Table 1. […] In some embodiments, CBF is analyzed with Sisson-Ammons Video Analysis (SAVA) software (Sisson et al., Journal of microscopy 211.2 (2003): 103-111) using an inverted phase contrast microscope (Zeiss®, Germany). In some embodiments, CBF is analyzed with Epithelix software (Cilia-X). […] In some embodiments, two videos are recorded per well at 120 frames per second with a total of 512 frames per video. In other embodiments, the CBF is expressed as Hz 256, wherein movies are captured at a high frequency rate of 125 frames per second. […]

Turning to `O=C(O)c1ccc(C=C2SC(=S)N(c3cccc(C(F)(F)F)c3)C2=O)cc1` [INH-172], the “Decline of TMV from baseline” value in the assay on sheep is recorded as “approximately 50%”.
As for `CC(C)NCC(O)c1ccc(O)c(O)c1` (centres unmarked) [positive control of cilia beating, Isoproterenol], the Cilia beating frequency result in assay [1] is “highest cilia beating frequency”.
